According to publication PMC12397098, “3-Monothiopomalidomide, a new immunomodulatory imide drug (IMiD), blunts inflammation and mitigates ischemic stroke in the rat” (GeroScience, 2025):

Tests used:
[1] = tested on: TNF-α in LPS-challenged human PBMCs; test: TNF-α in media of LPS-challenged human PBMCs; format: cell-based; conditions: 10 ng/ml LPS, 24 h, 3-MP 0 to 30 μM, vs LPS alone
Protocol: Human peripheral blood mononuclear cells (PBMCs), purchased from ATCC (Cat no. PCS-800–011, Lot no. 81215231, Manassas, VA, USA), were washed with ice-cold HBSS (ATCC 30–2213) containing 10% fetal bovine serum (FBS: ATCC 30–2020) and used for the experiment directly. The washed cells were suspended and maintained in RPMI media supplemented with 10% FBS, penicillin 100 U/mL, and streptomycin 100 µg/mL at 37 °C and 5% CO2. Approximately 5 × 10^5 cells were seeded into 24-well plates and allowed to equilibrate for 2 h. Pomalidomide or 3-MP, dissolved in 100% tissue culture grade dimethylsulfoxide (DMSO: Sigma Aldrich, St Louis, MO, USA), was then added to the wells. The final concentrations of drugs were 0.0, 0.6, 1.0, 10, 30, and 60 µM (n = 3–4 for each group). At 1 h after initiation of treatment, the cells were challenged with lipopolysaccharide (LPS, Sigma Aldrich, E.Coli 055:B5, Cat no. L4005-100MG, Lot no. 0000218759, Endotoxin Unit: 500,000 EU/mg, at a concentration of 10 ng/mL), and the media was collected after a further 24 h for evaluation of lactate dehydrogenase (LDH) activity as a marker of drug-induced cellular toxicity and concentrations of nitrite (In Vitro Toxicology Assay Kit, Lactic Dehydrogenase based, Promega, Cat no. G7891, Madison, WI, USA) (Griess Reagent System, Promega, Cat no. G2930) and TNF-α (human TNF-α ELISA MAX™ Deluxe Set Cat no. […]

[2] = tested on: LPS-induced cytokines (TNF-α, IL-6, IL-10, IL-13) in plasma and cerebral cortex; test: Systemic and brain LPS anti-inflammatory study in rats; format: in vivo; conditions: rat, 4 h
Protocol: They were administered, via the intraperitoneal (I.P.) route, nano-formulated 3-MP at a dose of 13.25 or 26.5 mg/kg (equimolar to a clinically translatable dose of 12.5 and 25 mg/kg thalidomide), vehicle or pomalidomide (25 mg/kg). One hour later, animals were administered either LPS (1 mg/kg, E.Coli 055:B5, Sigma Aldrich, in normal saline, 0.5 mg/mL) or an alike volume of saline (without LPS) via the I.P. route. The LPS dose was selected from prior pilot studies to provide a substantial but sub-maximal rise in plasma proinflammatory cytokine levels, in line with our prior research. The selected 3-MP and pomalidomide doses were chosen as they are equimolar to, or are less than, doses of thalidomide and analogues that have been verified to be well tolerated in our previous studies and are of translational relevance to humans. Four hours after LPS administration, the animals were euthanized, and blood and brain tissues were collected and placed on wet ice. Plasma was quickly separated from blood by centrifugation (10,000 × g, 5 min, 4 °C) and together with the brain samples (cerebral cortex) was stored at − 80 °C. At a later time, cerebral cortex samples were sonicated in a TRIS-based lysis buffer (Mesoscale Discovery) with 3 × protease/phosphatase inhibitors (Halt™ Protease and Phosphatase Inhibitor Cocktail, Thermo Fisher Scientific, Waltham, MA, USA). Samples were then centrifuged (10,000 × g, 5 min, 4 °C), supernatant separated, and protein concentrations were quantified by bicinchoninic acid assay (BCA, Thermo Fisher Scientific). Rat plasma and cerebral cortex samples were analyzed by multi-proinflammatory cytokine ELISA (V-PLEX Proinflammatory Panel 2 Rat Kit, Mesoscale Discovery) following the manufacturer’s protocol to quantify TNF-α, IL-6, IL-10, and IL-13 levels.

[3] = Ex vivo plasma stability, rat; format: in vitro ADME; conditions: 100 μg/ml, 37 °C, 180 min
Protocol: (§1) Ex vivo evaluations of drug plasma and liver microsomal time-dependent breakdown are routinely undertaken to initially characterize the metabolic stability of new pharmacological compounds and were performed by WuXi AppTec (Shanghai, China; Study No. 424847–20,211,214-MMS). Rat and human plasma and liver microsomes were purchased from Xenotech (Sprague Dawley rat, Catalog no. R1000; BioIVT, Westbury, NY) or Corning (mixed human, Catalog no. 452117; Sigma). Rat and human plasma was incubated at 37 °C on a shaker and spiked with 3-MP (100 μg/ml, n = 3). Thereafter, samples were time-dependently (0 to 180 min) removed, immediately frozen (− 80 °C), and subjected to LC–MS/MS analysis at a later time.

[4] = Ex vivo plasma stability, human; format: in vitro ADME; conditions: 100 μg/ml, 37 °C, 180 min
Protocol: as §1

[5] = tested on: MCAo-induced brain infarction; test: MCAo ischemic stroke: brain infarct volume (TTC); format: in vivo, rat; conditions: 3-MP 10.58 and 21.17 mg/kg I.P. (doses combined), 48 h
[6] = tested on: plasma TNF-α, IL-1β, IL-6, IL-10 in MCAo-challenged rats; test: MCAo ischemic stroke: plasma cytokines at 48 h; format: in vivo; conditions: rat MCAo, 3-MP I.P., plasma at 48 h
[7] = biological target: T1, Serotonin 5-HT1D receptor (Homo sapiens, UniProt P28221); test: PDSP radioligand binding; conditions: read-out: 3-MP concentration required to induce 50% inhibition of PDSP radioligand binding
T1 construct: NIMH Psychoactive Drug Screening Program (PDSP)
T1 sequence (P28221 whole entry): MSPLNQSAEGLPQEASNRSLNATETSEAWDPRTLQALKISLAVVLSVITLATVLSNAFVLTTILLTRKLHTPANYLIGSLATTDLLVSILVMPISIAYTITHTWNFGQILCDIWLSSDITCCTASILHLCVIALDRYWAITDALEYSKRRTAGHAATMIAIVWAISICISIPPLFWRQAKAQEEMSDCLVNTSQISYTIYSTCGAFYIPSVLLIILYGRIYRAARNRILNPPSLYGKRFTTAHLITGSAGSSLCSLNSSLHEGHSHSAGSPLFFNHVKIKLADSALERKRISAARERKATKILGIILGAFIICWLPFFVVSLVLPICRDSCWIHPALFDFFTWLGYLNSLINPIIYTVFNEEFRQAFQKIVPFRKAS
Protocol: (§2) To evaluate potential binding at classical neurological drug targets, 3-MP and 3,6’-DP were submitted to the National Institute on Mental Health (NIMH) Psychoactive Drug Screening Program (PDSP: Univ. N Carolina, Chapel Hill, NC, USA < https://pdspdb.unc.edu/pdspweb/ >) as powdered samples in the provided vials. The materials were then prepared at the PDSP in 10% DMSO, subjected to multiple assay screens, and processed as per the PDSP Assay Protocol Book (Version 3, March 2018). Compounds that exceeded an initial 10 uM binding threshold were then delegated for secondary dose–response analysis. This screen comprised a 45-target comprehensive panel of common brain receptor and transporter drug targets.

[8] = biological target: T2, Serotonin 5-HT2B receptor (Homo sapiens, UniProt P41595); test: PDSP radioligand binding; conditions: read-out: 3-MP concentration required to induce 50% inhibition of PDSP radioligand binding
T2 construct: NIMH Psychoactive Drug Screening Program (PDSP)
T2 sequence (P41595 whole entry): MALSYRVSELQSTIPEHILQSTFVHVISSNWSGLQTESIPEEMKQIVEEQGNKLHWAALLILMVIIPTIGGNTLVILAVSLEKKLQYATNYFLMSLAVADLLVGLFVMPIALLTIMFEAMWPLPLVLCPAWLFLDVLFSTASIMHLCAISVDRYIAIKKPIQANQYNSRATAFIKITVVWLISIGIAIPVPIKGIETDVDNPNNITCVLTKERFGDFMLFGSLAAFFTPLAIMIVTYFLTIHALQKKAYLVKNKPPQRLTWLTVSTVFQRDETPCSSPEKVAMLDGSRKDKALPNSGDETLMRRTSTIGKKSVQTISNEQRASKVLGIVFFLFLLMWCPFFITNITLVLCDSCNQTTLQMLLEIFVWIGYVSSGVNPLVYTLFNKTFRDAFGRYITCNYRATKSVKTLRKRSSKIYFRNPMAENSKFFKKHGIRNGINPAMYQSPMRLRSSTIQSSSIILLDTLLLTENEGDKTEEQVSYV
Protocol: as §2

in vitro [9] = conditions: Sprague Dawley, rat, microsomes
in vitro [10] = conditions: human, microsomes
[11] = 13.25 and 26.5 mg/kg I.P. 1 h before LPS 1 mg/kg I.P.

Nc1cccc2c1C(=S)N(C1CCC(=O)NC1=O)C2=O (centres unmarked) [3-MP, 3-Monothiopomalidomide]
TNF-α levels in media [1]: dose-dependently reduced
LPS-mediated reduction in plasma IL-13 ([2]; 3-MP both doses I.P., LPS 1 mg/kg): abated
LPS-mediated elevations in brain IL-13 ([2]; 3-MP both doses and pomalidomide I.P., LPS 1 mg/kg): maintained
decline in IL-6 brain levels ([2]; 3-MP low dose 13.25 mg/kg I.P., pomalidomide 25 mg/kg I.P., LPS 1 mg/kg): failed to achieve statistical significance
LPS-induced rise in plasma IL-6 [2, 11]: reduced
LPS-induced rise in plasma TNF-α [2, 11]: reduced
IL-10 elevation induced by LPS in plasma or brain ([2]; high- or low-dose 3-MP or pomalidomide I.P., LPS 1 mg/kg): not lessened
stability in rat plasma [3]: relatively stable
stability in human plasma [4]: relatively stable
infarct volume ([5]; rat MCAo 60 min + reperfusion, TTC): 4.32 ± 1.33%
reduction of infarct volume versus MCAo + vehicle ([5]; rat MCAo): 56%
MCAo-induced elevation in plasma IL-1β [6]: significantly mitigated
MCAo-induced elevation in plasma IL-6 [6]: significantly mitigated
MCAo-induced elevation in plasma TNF-α [6]: significantly mitigated
plasma anti-inflammatory IL-10 levels [6]: rise
IC50 [7]: > 10 µM
IC50 [8]: > 10 µM
CLint scaled at 1 μM (in vitro [9]): < 17.3 mL/min/kg
half-life at 1 μM (in vitro [9]): > 2.42 h
microsomal CLint at 1 μM (in vitro [9]): < 9.6 µL/min/mg
CLint scaled at 1 μM (in vitro [10]): < 8.6 mL/min/kg
half-life at 1 μM (in vitro [10]): > 2.42 h
microsomal CLint at 1 μM (in vitro [10]): < 9.6 µL/min/mg
